Among the data in publication PMC9748189 (Journal of Pain Research, 2022) are IC50 values, retold here.

The target of one assay is T1, COX-1 (Ovis aries, UniProt P05979).
T1 sequence (P05979 25-600): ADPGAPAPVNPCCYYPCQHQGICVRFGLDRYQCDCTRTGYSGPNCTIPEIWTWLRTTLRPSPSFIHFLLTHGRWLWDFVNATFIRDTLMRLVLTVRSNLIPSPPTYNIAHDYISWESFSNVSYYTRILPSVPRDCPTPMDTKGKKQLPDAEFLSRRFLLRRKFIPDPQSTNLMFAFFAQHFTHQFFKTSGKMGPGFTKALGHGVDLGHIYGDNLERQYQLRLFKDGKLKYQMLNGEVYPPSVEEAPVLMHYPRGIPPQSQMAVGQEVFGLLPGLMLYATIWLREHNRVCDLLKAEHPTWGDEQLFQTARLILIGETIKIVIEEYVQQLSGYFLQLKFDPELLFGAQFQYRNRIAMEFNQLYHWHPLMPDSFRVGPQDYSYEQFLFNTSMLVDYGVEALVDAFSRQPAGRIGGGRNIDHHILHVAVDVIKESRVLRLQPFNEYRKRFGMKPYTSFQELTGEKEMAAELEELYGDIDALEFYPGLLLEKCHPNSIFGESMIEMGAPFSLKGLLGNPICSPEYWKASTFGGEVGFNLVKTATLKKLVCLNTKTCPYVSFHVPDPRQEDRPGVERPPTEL
Description: recombinant COX-1 enzyme inhibition. The format is biochemical.

In another assay the target is T2, COX-2 (Ovis aries, UniProt P79208).
T2 sequence (P79208 17-603): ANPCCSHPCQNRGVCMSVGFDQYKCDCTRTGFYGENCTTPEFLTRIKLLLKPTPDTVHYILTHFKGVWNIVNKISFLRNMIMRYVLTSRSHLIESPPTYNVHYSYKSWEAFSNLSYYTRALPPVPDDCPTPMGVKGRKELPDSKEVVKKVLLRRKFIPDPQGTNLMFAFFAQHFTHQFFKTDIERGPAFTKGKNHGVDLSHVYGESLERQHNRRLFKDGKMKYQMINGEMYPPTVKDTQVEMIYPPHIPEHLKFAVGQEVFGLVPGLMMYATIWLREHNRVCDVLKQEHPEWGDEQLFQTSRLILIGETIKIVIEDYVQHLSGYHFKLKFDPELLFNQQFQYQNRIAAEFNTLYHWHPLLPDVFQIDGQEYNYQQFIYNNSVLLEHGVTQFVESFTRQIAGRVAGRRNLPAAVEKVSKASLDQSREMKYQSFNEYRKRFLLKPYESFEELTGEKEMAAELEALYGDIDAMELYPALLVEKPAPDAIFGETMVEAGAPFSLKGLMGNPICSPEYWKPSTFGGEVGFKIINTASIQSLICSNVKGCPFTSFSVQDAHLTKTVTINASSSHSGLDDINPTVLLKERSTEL
The assay is described as follows: recombinant COX-2 enzyme inhibition. The class given is biochemical.

Consider `CC(=O)Oc1ccc(NCCc2ccc(C(F)(F)F)cc2)cc1C(=O)O` [flusalazine, 2-acetoxy-5-(2-4-(trifluoromethyl)-phenethylamino)-benzoic acid], for which the 50% inhibitory concentration (IC50) at COX-1 was 16.2 µM; at COX-2, 651 µM.

One may read the IC50 as the concentration that gives 50% inhibition.
